Our source for the Activity values is ChEMBL document CHEMBL5715954, “Silencing c-Myc translation as a therapeutic strategy through targeting PI3Kδ and CK1ε in hematological malignancies” (Blood, 2017).

Holding throughout (parameters): scale not given: the % may be the effect or the level left
For assay [1], the target named is T1, Myosin light chain kinase family member 4 (Homo sapiens) (UniProt Q86YV6).
T1 sequence (whole entry): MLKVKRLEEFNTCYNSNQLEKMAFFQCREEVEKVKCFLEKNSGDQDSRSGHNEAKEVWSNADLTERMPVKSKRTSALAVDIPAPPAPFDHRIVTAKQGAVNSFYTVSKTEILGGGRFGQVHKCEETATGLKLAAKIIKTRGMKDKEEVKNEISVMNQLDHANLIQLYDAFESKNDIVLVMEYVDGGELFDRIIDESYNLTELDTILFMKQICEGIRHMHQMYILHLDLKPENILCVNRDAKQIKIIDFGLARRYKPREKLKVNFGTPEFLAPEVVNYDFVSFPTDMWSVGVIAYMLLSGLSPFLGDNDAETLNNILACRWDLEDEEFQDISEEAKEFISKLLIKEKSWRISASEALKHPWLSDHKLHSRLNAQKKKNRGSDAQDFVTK
Briefly: Inhibition of human MYLK4 assessed as enzyme activity at 1 uM using KKRPQRRYSNVF as substrate preincubated for 20 mins followed by [gamma-33P]-ATP addition and measured after 120 mins by radiometric Hot-SpotSM Kinase assay relative to control.

Assay [2] deals with Serine/threonine-protein kinase pim-1 (Homo sapiens) (UniProt P11309). Briefly: Inhibition of human PIM1 assessed as enzyme activity at 1 uM using RSRHSSYPAGT as substrate preincubated for 20 mins followed by [gamma-33P]-ATP addition and measured after 120 mins by radiometric Hot-SpotSM Kinase assay relative to control.
Sequence of Serine/threonine-protein kinase pim-1 (Homo sapiens) (P11309 whole entry, looked up): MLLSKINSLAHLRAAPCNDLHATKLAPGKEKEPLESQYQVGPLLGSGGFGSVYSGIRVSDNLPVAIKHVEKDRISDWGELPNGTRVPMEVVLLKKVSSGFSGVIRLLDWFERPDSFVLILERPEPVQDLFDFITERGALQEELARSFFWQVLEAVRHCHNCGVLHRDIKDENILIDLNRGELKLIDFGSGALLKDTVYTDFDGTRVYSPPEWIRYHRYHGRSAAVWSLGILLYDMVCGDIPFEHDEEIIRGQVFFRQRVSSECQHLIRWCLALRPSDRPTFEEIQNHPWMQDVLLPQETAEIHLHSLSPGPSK
Assay [3] deals with Tyrosine-protein kinase Yes (Homo sapiens) (UniProt P07947). Put plainly: Inhibition of human YES assessed as enzyme activity at 1 uM using poly[Glu:Tyr] (4:1) as substrate preincubated for 20 mins followed by [gamma-33P]-ATP addition and measured after 120 mins by radiometric Hot-SpotSM Kinase assay relative to control.
Sequence of Tyrosine-protein kinase Yes (Homo sapiens) (P07947 2-543 limits assumed): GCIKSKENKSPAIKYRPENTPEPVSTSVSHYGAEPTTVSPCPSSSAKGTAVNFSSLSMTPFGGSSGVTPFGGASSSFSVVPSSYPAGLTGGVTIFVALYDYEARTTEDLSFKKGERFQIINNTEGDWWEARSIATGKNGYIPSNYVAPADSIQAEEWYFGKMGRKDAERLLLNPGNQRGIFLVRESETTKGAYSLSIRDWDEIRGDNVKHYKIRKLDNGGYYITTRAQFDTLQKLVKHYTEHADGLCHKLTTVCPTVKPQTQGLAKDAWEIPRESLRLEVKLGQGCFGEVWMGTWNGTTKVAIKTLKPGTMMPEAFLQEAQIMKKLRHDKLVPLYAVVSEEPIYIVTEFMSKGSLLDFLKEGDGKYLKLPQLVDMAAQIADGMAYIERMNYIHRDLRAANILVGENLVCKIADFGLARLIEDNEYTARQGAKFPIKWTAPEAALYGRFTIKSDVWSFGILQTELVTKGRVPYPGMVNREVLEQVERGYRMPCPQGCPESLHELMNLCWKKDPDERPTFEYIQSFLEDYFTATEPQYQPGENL
The target of assay [4] is Mitogen-activated protein kinase kinase kinase 11 (Homo sapiens) (UniProt Q16584). Briefly: Inhibition of human MLK3 assessed as enzyme activity at 1 uM using myelin basic protein as substrate preincubated for 20 mins followed by [gamma-33P]-ATP addition and measured after 120 mins by radiometric Hot-SpotSM Kinase assay relative to control.
Sequence of Mitogen-activated protein kinase kinase kinase 11 (Homo sapiens) (Q16584 whole entry, looked up): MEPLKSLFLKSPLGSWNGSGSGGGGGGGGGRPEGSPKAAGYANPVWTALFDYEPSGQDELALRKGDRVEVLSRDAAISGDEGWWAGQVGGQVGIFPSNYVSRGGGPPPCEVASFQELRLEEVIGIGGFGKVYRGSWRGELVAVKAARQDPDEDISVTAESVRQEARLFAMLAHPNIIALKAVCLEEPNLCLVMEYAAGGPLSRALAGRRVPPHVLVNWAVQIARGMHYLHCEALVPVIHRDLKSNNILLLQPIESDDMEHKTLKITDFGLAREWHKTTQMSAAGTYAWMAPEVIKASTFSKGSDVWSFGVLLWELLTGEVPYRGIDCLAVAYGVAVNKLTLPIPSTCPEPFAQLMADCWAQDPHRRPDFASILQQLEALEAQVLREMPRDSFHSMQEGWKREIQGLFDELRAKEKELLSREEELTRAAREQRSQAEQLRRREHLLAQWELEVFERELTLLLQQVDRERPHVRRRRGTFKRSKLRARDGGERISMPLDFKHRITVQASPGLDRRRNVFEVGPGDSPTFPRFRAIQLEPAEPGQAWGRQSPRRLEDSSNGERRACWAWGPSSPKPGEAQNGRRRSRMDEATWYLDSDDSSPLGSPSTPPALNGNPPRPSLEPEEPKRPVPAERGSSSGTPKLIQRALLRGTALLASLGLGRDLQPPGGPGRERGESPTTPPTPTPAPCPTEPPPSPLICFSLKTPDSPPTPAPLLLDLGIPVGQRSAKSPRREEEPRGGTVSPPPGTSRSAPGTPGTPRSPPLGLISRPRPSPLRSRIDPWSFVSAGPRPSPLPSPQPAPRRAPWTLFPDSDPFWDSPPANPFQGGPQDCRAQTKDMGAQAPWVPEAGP
For assay [5], the target named is Mitogen-activated protein kinase 10 (Homo sapiens) (UniProt P53779). Put plainly: Inhibition of human JNK3 assessed as enzyme activity at 1 uM using ATF2 as substrate preincubated for 20 mins followed by [gamma-33P]-ATP addition and measured after 120 mins by radiometric Hot-SpotSM Kinase assay relative to control.
Sequence of Mitogen-activated protein kinase 10 (Homo sapiens) (P53779 whole entry): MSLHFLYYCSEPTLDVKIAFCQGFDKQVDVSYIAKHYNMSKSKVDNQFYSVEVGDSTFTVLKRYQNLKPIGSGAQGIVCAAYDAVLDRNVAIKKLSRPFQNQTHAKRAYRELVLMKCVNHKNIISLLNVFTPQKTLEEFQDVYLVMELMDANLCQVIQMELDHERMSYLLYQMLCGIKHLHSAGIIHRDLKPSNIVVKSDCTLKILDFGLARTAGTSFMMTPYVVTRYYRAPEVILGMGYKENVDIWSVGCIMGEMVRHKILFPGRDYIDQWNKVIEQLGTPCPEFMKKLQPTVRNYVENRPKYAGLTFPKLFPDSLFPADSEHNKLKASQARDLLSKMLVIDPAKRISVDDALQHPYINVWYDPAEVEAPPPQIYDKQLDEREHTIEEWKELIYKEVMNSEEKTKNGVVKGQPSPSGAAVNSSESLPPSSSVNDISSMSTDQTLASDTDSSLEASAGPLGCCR
In assay [6] the target is Death-associated protein kinase 2 (Homo sapiens) (UniProt Q9UIK4). Put plainly: Inhibition of human DAPK2 assessed as enzyme activity at 1 uM using KKLNRTLSFAEPG as substrate preincubated for 20 mins followed by [gamma-33P]-ATP addition and measured after 120 mins by radiometric Hot-SpotSM Kinase assay relative to control.
Sequence of Death-associated protein kinase 2 (Homo sapiens) (Q9UIK4 whole entry, looked up): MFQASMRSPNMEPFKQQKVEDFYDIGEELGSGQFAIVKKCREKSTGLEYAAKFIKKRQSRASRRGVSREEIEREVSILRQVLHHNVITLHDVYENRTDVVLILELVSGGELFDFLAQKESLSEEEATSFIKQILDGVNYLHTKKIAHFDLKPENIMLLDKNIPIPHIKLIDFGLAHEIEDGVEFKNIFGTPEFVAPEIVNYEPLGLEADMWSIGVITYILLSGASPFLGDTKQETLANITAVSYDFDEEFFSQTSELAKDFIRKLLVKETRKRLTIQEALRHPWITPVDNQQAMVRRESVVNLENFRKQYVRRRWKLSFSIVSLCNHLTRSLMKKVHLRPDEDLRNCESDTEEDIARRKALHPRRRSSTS
The target in assay [7] is Death-associated protein kinase 1 (Homo sapiens) (UniProt P53355). Put plainly: Inhibition of human DAPK1 assessed as enzyme activity at 1 uM using KKLNRTLSFAEPG as substrate preincubated for 20 mins followed by [gamma-33P]-ATP addition and measured after 120 mins by radiometric Hot-SpotSM Kinase assay relative to control.
The target of assay [8] is Ribosomal protein S6 kinase alpha-2 (Homo sapiens) (UniProt Q15349). Briefly: Inhibition of human RSK3 assessed as enzyme activity at 1 uM using KKLNRTLSVA as substrate preincubated for 20 mins followed by [gamma-33P]-ATP addition and measured after 120 mins by radiometric Hot-SpotSM Kinase assay relative to control.
Sequence of Ribosomal protein S6 kinase alpha-2 (Homo sapiens) (Q15349 whole entry): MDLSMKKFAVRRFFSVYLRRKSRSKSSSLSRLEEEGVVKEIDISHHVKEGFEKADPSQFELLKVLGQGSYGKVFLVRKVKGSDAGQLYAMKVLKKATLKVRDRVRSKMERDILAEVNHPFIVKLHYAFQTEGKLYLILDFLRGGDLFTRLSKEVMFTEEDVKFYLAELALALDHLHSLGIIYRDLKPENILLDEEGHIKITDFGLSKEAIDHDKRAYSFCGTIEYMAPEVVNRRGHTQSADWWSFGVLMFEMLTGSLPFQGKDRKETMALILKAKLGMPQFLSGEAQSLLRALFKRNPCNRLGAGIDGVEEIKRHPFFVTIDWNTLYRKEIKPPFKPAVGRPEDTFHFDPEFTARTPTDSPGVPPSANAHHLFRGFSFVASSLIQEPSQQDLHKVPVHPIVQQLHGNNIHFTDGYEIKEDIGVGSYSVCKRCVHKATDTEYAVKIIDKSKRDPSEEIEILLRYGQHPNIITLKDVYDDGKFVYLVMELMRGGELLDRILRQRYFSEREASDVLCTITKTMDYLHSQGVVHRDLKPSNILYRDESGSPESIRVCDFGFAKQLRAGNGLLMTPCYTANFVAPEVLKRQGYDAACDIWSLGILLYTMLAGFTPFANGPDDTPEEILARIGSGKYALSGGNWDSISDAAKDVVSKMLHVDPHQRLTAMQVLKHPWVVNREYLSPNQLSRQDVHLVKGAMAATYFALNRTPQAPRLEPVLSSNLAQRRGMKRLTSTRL
The target of assay [9] is Receptor tyrosine-protein kinase erbB-2 (Homo sapiens) (UniProt P04626). Put plainly: Inhibition of human ERBB2 assessed as enzyme activity at 1 uM using poly[Glu:Tyr] (4:1) as substrate preincubated for 20 mins followed by [gamma-33P]-ATP addition and measured after 120 mins by radiometric Hot-SpotSM Kinase assay relative to control.
Sequence of Receptor tyrosine-protein kinase erbB-2 (Homo sapiens) (P04626 whole entry): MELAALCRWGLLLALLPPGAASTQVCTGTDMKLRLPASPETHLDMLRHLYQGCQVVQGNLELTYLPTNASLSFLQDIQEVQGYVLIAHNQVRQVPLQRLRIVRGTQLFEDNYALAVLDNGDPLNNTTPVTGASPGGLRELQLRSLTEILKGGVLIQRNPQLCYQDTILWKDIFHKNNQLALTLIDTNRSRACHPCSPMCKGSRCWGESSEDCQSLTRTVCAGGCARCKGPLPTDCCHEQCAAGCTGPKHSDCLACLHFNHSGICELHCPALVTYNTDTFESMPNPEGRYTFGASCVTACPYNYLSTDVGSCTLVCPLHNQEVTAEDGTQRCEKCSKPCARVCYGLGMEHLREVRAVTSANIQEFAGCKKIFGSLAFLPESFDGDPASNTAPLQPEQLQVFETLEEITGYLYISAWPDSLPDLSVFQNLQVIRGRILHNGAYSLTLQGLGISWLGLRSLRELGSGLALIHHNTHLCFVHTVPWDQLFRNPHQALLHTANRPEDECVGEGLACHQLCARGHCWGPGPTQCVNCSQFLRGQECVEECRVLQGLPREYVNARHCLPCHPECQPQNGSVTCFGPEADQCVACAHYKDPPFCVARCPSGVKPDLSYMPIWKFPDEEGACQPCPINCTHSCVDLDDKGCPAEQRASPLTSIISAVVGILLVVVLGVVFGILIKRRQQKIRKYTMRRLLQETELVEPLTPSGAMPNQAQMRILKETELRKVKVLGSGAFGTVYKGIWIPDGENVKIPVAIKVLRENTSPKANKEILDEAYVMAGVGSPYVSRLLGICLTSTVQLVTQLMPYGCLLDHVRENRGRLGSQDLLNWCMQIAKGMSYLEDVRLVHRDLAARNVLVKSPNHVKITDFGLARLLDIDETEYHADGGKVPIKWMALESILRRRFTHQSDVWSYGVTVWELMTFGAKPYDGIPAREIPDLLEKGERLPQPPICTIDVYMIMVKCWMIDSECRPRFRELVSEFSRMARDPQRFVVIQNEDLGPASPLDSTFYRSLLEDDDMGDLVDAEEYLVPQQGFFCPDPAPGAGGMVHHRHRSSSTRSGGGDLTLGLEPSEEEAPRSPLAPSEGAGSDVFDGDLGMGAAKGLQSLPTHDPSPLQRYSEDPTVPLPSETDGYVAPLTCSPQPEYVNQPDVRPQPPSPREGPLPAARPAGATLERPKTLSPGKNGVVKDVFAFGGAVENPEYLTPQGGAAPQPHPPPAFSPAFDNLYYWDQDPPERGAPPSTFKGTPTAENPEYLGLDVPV
In assay [10] the target is CDK9/cyclin T1 (Homo sapiens) (UniProt O60563+P50750). Briefly: Inhibition of human CDK9/cyclin T1 assessed as enzyme activity at 1 uM using KTFCGTPEYLAPEVRREPRILSEEEQEMFRDFDYIADWC as substrate preincubated for 20 mins followed by [gamma-33P]-ATP addition and measured after 120 mins by radiometric Hot-SpotSM Kinase assay relative to control. It is filed as protein-complex assay.

Assay [11] deals with T2, Serine/threonine-protein kinase Nek5 (Homo sapiens) (UniProt Q6P3R8).
T2 sequence (whole entry): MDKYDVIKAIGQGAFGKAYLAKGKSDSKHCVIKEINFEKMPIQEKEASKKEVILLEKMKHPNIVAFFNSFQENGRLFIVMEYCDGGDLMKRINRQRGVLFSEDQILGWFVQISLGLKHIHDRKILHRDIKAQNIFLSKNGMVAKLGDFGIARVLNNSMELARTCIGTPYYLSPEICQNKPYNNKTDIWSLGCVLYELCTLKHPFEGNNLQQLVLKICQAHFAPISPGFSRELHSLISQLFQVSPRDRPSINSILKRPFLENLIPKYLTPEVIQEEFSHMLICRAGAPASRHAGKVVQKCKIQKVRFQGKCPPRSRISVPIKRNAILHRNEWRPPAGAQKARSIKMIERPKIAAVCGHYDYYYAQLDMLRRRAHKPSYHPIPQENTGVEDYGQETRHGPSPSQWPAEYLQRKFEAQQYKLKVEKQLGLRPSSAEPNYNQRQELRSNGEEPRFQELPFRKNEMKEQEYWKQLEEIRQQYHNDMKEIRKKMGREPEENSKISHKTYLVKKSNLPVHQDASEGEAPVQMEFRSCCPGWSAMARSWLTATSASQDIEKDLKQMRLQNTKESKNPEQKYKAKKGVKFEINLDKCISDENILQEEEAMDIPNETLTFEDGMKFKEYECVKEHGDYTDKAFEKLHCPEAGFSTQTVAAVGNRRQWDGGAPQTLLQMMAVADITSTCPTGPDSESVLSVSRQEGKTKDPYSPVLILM
Briefly: Inhibition of human NEK5 assessed as enzyme activity at 1 uM using myelin basic protein as substrate preincubated for 20 mins followed by [gamma-33P]-ATP addition and measured after 120 mins by radiometric Hot-SpotSM Kinase assay relative to control.

In the case of `C[C@H](Nc1ncnc2nc[nH]c12)c1cc2cccc(Cl)c2c(=O)n1-c1ccccc1`, the Activity in [1] was 93%; in [2], 99.6%; in assay [3], 94.2%; in assay [4], 75.1%; in [5] it was 96.6%; in [6] it was 103%. Besides, the Activity in [7] was 97%; in [8], 94.1%; in assay [9] it was 104%; in [10] it was 96.2%; in assay [11], 92.8%.
With `CC[C@H](Nc1ncnc2[nH]cnc12)c1nc2cccc(F)c2c(=O)n1-c1ccccc1`, the Activity in assay [1] was found to be 90.9%; in assay [2] it was 99.6%; in [3], 93.1%; in assay [4], 79.8%; in assay [5], 96%; in [6] it was 106%. Also, the Activity in assay [7] is 95%; in [8], 98.3%; in assay [9], 109%; in assay [10] it was 89.5%; in assay [11], 111%.
With `CC(C)Oc1ccc(-c2nn([C@@H](C)c3oc4ccc(F)cc4c(=O)c3-c3cccc(F)c3)c3ncnc(N)c23)cc1F` [UMBRALISIB], the Activity in [1] was 92.3%; in assay [2], 98.2%; in assay [3] it was 93.5%; in assay [4], 80.9%; in assay [5] it was 95.6%; in [6], 97.9%. Further, the Activity in assay [7] was 99.7%; in assay [8], 101%; in assay [9], 117%; in [10], 98.5%; in [11], 110%.
